Patent US8476302B2, “α-ketoamide derivatives useful endothelial lipase inhibitors” (Janssen Pharmaceutica N.V., priority 2010, dated 2013)
Where “and” joins values, the source holds several entries; their conditions need not be identical. Identical values can stand only once.

Columns and labels:
[1] = target: T1, human endothelial lipase (EL) (Homo sapiens, UniProt Q9Y5X9); experiment: Endothelial Lipase Assay, cell surface lipase activity (human); assay type: cell-based; conditions: cells expressing human EL, PLA1 substrate 10 μM, fluorescence reaction rate; several values in a cell are repeat determinations
T1 construct: host or cells: cells expressing human endothelial lipase
T1 sequence (Q9Y5X9 21-500): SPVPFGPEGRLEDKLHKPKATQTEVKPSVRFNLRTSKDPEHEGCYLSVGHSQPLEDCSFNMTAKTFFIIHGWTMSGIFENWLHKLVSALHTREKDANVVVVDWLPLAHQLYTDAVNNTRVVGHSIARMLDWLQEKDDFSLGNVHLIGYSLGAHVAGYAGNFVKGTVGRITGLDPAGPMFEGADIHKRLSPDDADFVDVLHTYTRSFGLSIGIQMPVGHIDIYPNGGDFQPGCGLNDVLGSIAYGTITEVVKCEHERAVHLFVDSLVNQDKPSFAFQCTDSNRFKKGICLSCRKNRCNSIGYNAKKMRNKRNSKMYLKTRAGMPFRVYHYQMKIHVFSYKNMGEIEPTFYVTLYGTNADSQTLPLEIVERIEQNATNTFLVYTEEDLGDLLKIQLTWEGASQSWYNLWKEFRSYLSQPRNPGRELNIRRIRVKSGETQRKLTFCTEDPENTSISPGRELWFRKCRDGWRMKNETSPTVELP
Experimental: (§1) Endothelial Lipase Assay (Human/Mouse)
(§2) To assay for cell surface lipase activity, cells expressing human endothelial lipase (EL) or LPL were plated in CellBIND® 384-well plates (Corning, Lowell, Mass.) in 25 μL serum free medium at a density of 2000 cells/well. After 18-24 hours incubation at 37° C., the medium was removed and replaced with 15 μL assay buffer [Hank's Buffered Saline Solution with 25 mM HEPES pH 7.2] and 15 μL PLA1 for a final concentration of 10 μM using a Multidrop reagent dispenser. Fluorescence signal was monitored for 30 min at 37° C. on a Safire II plate reader in kinetic mode (60 cycles, kinetic interval: 30 seconds) with an excitation wavelength of 490 nm and an emission wavelength of 515 nm. Linear regression of the fluorescence intensity collected from 480 to 1500 seconds was used to calculate the reaction rate (the slope) and the slopes were used to calculate IC50 values where appropriate. The amount of BODIPY-labeled product generated was calculated at the 30 min time point as determined from standard curve analysis of purified BODIPY FL C5. In all studies using the inhibitor Ebelactone B, consistent results were obtained when it was dissolved as a stock in DMSO, immediately before use.

[2] = target: T2, Mouse EL (Mus musculus, UniProt Q9WVG5); experiment: Endothelial Lipase Assay, cell surface lipase activity (mouse); assay type: cell-based; conditions: PLA1 substrate 10 μM, fluorescence reaction rate, several values in a cell are repeat determinations
T2 construct: host or cells: not described for mouse EL
T2 sequence (Q9WVG5 21-500): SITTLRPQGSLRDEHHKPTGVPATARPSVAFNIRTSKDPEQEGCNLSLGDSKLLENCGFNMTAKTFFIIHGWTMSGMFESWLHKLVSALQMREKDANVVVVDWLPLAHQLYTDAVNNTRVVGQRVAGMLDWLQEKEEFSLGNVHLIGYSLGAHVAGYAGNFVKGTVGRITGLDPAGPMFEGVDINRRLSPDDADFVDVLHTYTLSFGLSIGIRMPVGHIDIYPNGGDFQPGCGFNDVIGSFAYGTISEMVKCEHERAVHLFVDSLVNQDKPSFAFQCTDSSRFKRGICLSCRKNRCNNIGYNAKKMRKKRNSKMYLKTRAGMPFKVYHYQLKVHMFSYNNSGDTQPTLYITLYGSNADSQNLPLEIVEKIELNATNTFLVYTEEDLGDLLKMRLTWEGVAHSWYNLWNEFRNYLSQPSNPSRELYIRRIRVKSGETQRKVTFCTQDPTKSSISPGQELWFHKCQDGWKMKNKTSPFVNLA
Experimental: as §1, §2

O=C(CCCCCCc1ccccc1)C(=O)NCc1nnc(-c2ccccc2)o1 [Compound 1, 2-oxo-8-phenyl-N-((5-phenyl-1,3,4-oxadiazol-2-yl)methyl)octanamide]
IC50 [1]: 952 nM and 836 nM and 690 nM | IC50 [2]: 1050 nM and 864 nM and 708 nM

O=C(CCCCCCc1ccccc1)C(=O)NCc1nnc(-c2ccc(Cl)cc2)o1 [Compound 2]
IC50 [1]: 488 nM | IC50 [2]: 616 nM

COc1cccc(-c2nnc(CNC(=O)C(=O)CCCCCCc3ccccc3)o2)c1 [Compound 3]
IC50 [1]: 1100 nM

COc1ccc(-c2nnc(CNC(=O)C(=O)CCCCCCc3ccccc3)o2)cc1 [Compound 4]
IC50 [1]: 640 nM

O=C(CCCCCCc1ccccc1)C(=O)NCc1nnc(-c2ccccc2Cl)o1 [Compound 5]
IC50 [1]: 663 nM

COc1ccccc1-c1nnc(CNC(=O)C(=O)CCCCCCc2ccccc2)o1 [Compound 6]
IC50 [1]: 2650 nM

O=C(CCCCCCc1ccccc1)C(=O)NCc1nnc(-c2ccc3c(c2)OCO3)o1 [Compound 7]
IC50 [1]: 457 nM

O=C(CCCCCCc1ccccc1)C(=O)NCc1nnc(-c2ccccc2)[nH]1 [Compound 11]
IC50 [1]: 10400 nM

O=C(CCCCCCc1ccccc1)C(=O)NCc1nnc(-c2ccccc2F)o1 [Compound 12]
IC50 [1]: 2100 nM | IC50 [2]: 1760 nM

O=C(CCCCCCc1ccccc1)C(=O)NCc1nnc(-c2ccc(F)cc2)o1 [Compound 15]
IC50 [1]: 735 nM | IC50 [2]: 1020 nM

O=C(CCCCCCc1ccccc1)C(=O)NCc1nnc(-c2ccc(-c3ccccc3)cc2)o1 [Compound 17]
IC50 [1]: 3360 nM | IC50 [2]: 1880 nM

O=C(CCCCCCc1ccccc1)C(=O)NCc1nnc(-c2cccc(Cl)c2)o1 [Compound 18]
IC50 [1]: 440 nM | IC50 [2]: 346 nM

O=C(CCCCCCc1ccccc1)C(=O)NCc1nnc(-c2ccc3c(=O)n4c(nc3c2)CCC4)o1 [Compound 19]
IC50 [1]: 5380 nM | IC50 [2]: 3050 nM

O=C(CCCCCCc1ccccc1)C(=O)NCc1nnc(-c2ccc(F)c(F)c2)o1 [Compound 20]
IC50 [1]: 490 nM | IC50 [2]: 552 nM

O=C(CCCCCCc1ccccc1)C(=O)NCc1nnc(-c2cccc(C(F)(F)F)c2)o1 [Compound 21]
IC50 [1]: 684 nM | IC50 [2]: 654 nM

O=C(CCCCCCc1ccccc1)C(=O)NCc1nnc(-c2ccc(C(F)(F)F)cc2)o1 [Compound 22]
IC50 [1]: 268 nM and 552 nM | IC50 [2]: 435 nM and 396 nM

CN(C)c1ccc(-c2nnc(CNC(=O)C(=O)CCCCCCc3ccccc3)o2)cc1 [Compound 24]
IC50 [1]: 16600 nM | IC50 [2]: 20700 nM

Cc1ccc(-c2nnc(CNC(=O)C(=O)CCCCCCc3ccccc3)o2)cc1 [Compound 25]
IC50 [1]: 353 nM and 319 nM and 468 nM | IC50 [2]: 333 nM and 235 nM and 269 nM

O=C(CCCCCCc1ccccc1)C(=O)NCc1nnc(-c2cc(F)cc(F)c2)o1 [Compound 26]
IC50 [1]: 668 nM | IC50 [2]: 436 nM

O=C(CCCCCCc1ccccc1)C(=O)NCc1nnc(-c2ccc3ccccc3c2)o1 [Compound 27]
IC50 [1]: 293 nM and 129 nM | IC50 [2]: 225 nM and 184 nM

O=C(CCCCCCc1cccc(F)c1)C(=O)NCc1nnc(-c2ccc3ccccc3c2)o1 [Compound 28]
IC50 [1]: 224 nM | IC50 [2]: 127 nM

O=C(CCCCCCc1ccc(F)cc1)C(=O)NCc1nnc(-c2ccc3ccccc3c2)o1 [Compound 30]
IC50 [1]: 523 nM | IC50 [2]: 205 nM

COc1cccc(CCCCCCC(=O)C(=O)NCc2nnc(-c3ccc4ccccc4c3)o2)c1 [Compound 31]
IC50 [1]: 141 nM | IC50 [2]: 120 nM

COc1cccc(CCCCCCC(=O)C(=O)NCc2nnc(-c3ccc(C)cc3)o2)c1 [Compound 32]
IC50 [1]: 213 nM | IC50 [2]: 165 nM

O=C(CCCCCc1ccccc1)C(=O)NCc1nnc(-c2ccccc2)o1 [Compound 33]
IC50 [1]: 3760 nM | IC50 [2]: 3350 nM

O=C(CCCCCc1ccccc1)C(=O)NCc1nnc(-c2ccc3ccccc3c2)o1 [Compound 34]
IC50 [1]: 904 nM | IC50 [2]: 473 nM

Cc1ccc(-c2nnc(CNC(=O)C(=O)CCCCCc3ccccc3)o2)cc1 [Compound 35]
IC50 [1]: 1130 nM | IC50 [2]: 994 nM

O=C(CCCCCc1ccc(-c2ccccc2)cc1)C(=O)NCc1nnc(-c2ccc3ccccc3c2)o1 [Compound 36]
IC50 [1]: 10200 nM | IC50 [2]: 6600 nM

Cc1ccc(-c2nnc(CNC(=O)C(=O)CCCCCc3ccc(-c4ccccc4)cc3)o2)cc1 [Compound 37]
IC50 [1]: 2530 nM | IC50 [2]: 1470 nM

O=C(CCCCCc1ccc(F)cc1)C(=O)NCc1nnc(-c2ccc3ccccc3c2)o1 [Compound 38]
IC50 [1]: 613 nM | IC50 [2]: 475 nM

Cc1ccc(-c2nnc(CNC(=O)C(=O)CCCCCc3ccc(F)cc3)o2)cc1 [Compound 39]
IC50 [1]: 643 nM | IC50 [2]: 772 nM

COc1cccc(C#CCCCC(=O)C(=O)NCc2nnc(-c3ccccc3)o2)c1 [Compound 40]
IC50 [1]: 33300 nM | IC50 [2]: 33300 nM

COc1ccc(C#CCCCC(=O)C(=O)NCc2nnc(-c3ccccc3)o2)cc1 [Compound 41]
IC50 [1]: 27200 nM | IC50 [2]: 24100 nM

O=C(CCCCCCc1ccncc1)C(=O)NCc1nnc(-c2ccccc2)o1 [Compound 42]
IC50 [1]: 4650 nM | IC50 [2]: 2730 nM

O=C(CCCCC#Cc1ccccc1)C(=O)NCc1nnc(-c2ccccc2)o1 [Compound 43]
IC50 [1]: 2410 nM | IC50 [2]: 2650 nM

N#Cc1ccc(CCCCCCC(=O)C(=O)NCc2nnc(-c3ccccc3)o2)cc1 [Compound 44]
IC50 [1]: 951 nM | IC50 [2]: 641 nM

N#Cc1ccc(C#CCCCCC(=O)C(=O)NCc2nnc(-c3ccccc3)o2)cc1 [Compound 45]
IC50 [1]: 3470 nM | IC50 [2]: 2410 nM

O=C(CCCCCOc1ccccc1)C(=O)NCc1nnc(-c2ccccc2)o1 [Compound 46]
IC50 [1]: 8750 nM | IC50 [2]: 6510 nM

Cc1ccc(-c2nnc(CNC(=O)C(=O)CCCCCOc3ccccc3)o2)cc1 [Compound 47]
IC50 [1]: 3190 nM | IC50 [2]: 3030 nM

O=C(CCCCCOc1ccccc1)C(=O)NCc1nnc(-c2ccc3ccccc3c2)o1 [Compound 48]
IC50 [1]: 1960 nM | IC50 [2]: 1710 nM

O=C(CCCCCCc1cccc(OC(F)(F)F)c1)C(=O)NCc1nnc(-c2ccccc2)o1 [Compound 49]
IC50 [1]: 561 nM | IC50 [2]: 312 nM

O=C(CCCCCCc1ccc2nc(Cl)ccc2c1)C(=O)NCc1nnc(-c2ccccc2)o1 [Compound 50]
IC50 [1]: 564 nM | IC50 [2]: 267 nM

O=C(CCCCCCc1ccccc1F)C(=O)NCc1nnc(-c2ccccc2)o1 [Compound 51]
IC50 [1]: 607 nM | IC50 [2]: 802 nM

O=C(CCCCCOc1ccccc1)C(=O)NCc1nnc(-c2ccc(Oc3ccccc3)cc2)o1 [Compound 52]
IC50 [1]: 2610 nM | IC50 [2]: 1800 nM

O=C(CCCCCOc1cccc(F)c1)C(=O)NCc1nnc(-c2ccccc2)o1 [Compound 53]
IC50 [1]: 4740 nM | IC50 [2]: 5910 nM

O=C(CCCCCOc1cccc(F)c1)C(=O)NCc1nnc(-c2ccc3ccccc3c2)o1 [Compound 54]
IC50 [1]: 916 nM | IC50 [2]: 802 nM

O=C(CCCCCOc1cccc(F)c1)C(=O)NCc1nnc(-c2ccc(Oc3ccccc3)cc2)o1 [Compound 55]
IC50 [1]: 340 nM | IC50 [2]: 384 nM

O=C(CCCCCOc1cccc(F)c1)C(=O)NCc1nnc(-c2cccc(Oc3ccccc3)c2)o1 [Compound 56]
IC50 [1]: 3250 nM | IC50 [2]: 2290 nM

O=C(CCCCCOc1cccc(F)c1)C(=O)NCc1nnc(-c2ccc(Oc3ccc(Cl)cc3)cc2)o1 [Compound 57]
IC50 [1]: 3780 nM | IC50 [2]: 1100 nM

O=C(CCCCCCc1ccccc1)C(=O)NCc1nnc(-c2cccc(Oc3ccccc3)c2)o1 [Compound 58]
IC50 [1]: 4890 nM | IC50 [2]: 1720 nM

O=C(CCCCCCc1ccccc1)C(=O)NCc1nnc(-c2ccc(Oc3ccc(Cl)cc3)cc2)o1 [Compound 59]
IC50 [1]: 2590 nM | IC50 [2]: 1110 nM

O=C(CCCCCNc1cccc(F)n1)C(=O)NCc1nnc(-c2ccccc2)o1 [Compound 171]
IC50 [1]: 33000 nM

O=C(CCCCCCc1ccccc1)C(=O)NCc1nnc(-c2cccnc2)o1 [Compound 177]
IC50 [1]: 5220 nM
